Experimental data taken from paper PMC11802874, “The hypolipidemic effect of MI-883, the combined CAR agonist/ PXR antagonist, in diet-induced hypercholesterolemia model” (Nature Communications, 2025).
“And” between values parts separate entries of the source, which are not always exact repeats. Equal values may be shown once. “Also recorded” adds a separate entry of the source.

Legend:
[1] = system: Salmonella typhimurium TA 98, TA 100, TA 1535, TA 1537; Escherichia coli WP2 uvrA; assay: Reverse-mutation Ames test / Bacterial Reverse Mutation Test; conditions: with and without metabolic activation
Source text: The mutagenic activity of MI-883 was detected using the commercially available Muta-ChromoPlate bacterial strain kit (ebpi, Mississauga, Ontario, Canada), which is a 96-well microplate version of the reverse-mutation Salmonella typhimurium Ames test with S9 rat-liver extract. Salmonella typhimurium tester strains TA 98 (detection of frameshift mutagens) and TA 100 (detection of base-exchange mutations) were used as we described before^1.
Consistently, Bacterial Reverse Mutation Test was performed as a service at Research Institute for Organic Syntheses Inc., (Pardubice, Czech Republic) in Salmonella typhimurium strains TA 98, TA 100, TA 1535, TA 1537, and one indicator Escherichia coli WP2 uvrA strains. The report is available after request.

[2] = target: T1, Human recombinant CYP3A4 (Homo sapiens, UniProt P08684); assay: CYP450-Glo CYP3A4 enzymatic activity assay; type: biochemical; conditions: for Inhibition assays, CYP3A4 activity (replicates): log[Agonist]
T1 construct: purchased Promega; host or cells: baculovirus-infected insect cells
T1 sequence (P08684 whole entry): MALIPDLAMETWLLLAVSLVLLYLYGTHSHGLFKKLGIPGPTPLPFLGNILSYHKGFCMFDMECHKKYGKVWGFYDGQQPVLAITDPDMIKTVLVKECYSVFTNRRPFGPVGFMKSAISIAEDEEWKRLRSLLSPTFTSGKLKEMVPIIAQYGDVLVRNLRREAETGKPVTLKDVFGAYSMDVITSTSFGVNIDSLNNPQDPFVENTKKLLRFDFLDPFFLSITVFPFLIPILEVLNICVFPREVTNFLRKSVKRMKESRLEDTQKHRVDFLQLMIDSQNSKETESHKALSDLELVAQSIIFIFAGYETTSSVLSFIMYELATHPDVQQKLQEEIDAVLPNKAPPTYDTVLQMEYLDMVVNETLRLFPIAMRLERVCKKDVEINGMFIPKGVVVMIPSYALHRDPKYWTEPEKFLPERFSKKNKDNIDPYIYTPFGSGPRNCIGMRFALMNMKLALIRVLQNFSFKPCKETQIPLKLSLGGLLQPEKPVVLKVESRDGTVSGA
Source text: Data are presented as means±S.D. from three independent measurements.

[3] = system: PXR-responsive CYP3A4(pER6)-luc construct; assay: CYP3A4(pER6)-luc luciferase reporter assay in HepG2 cells
[4] = Metabolic stability in mouse liver S9 fraction; conditions: male, CD-1, mouse
Protocol: Shimadzu HPLC system including vacuum degasser, gradient pumps, reverse phase HPLC column, column oven, and autosampler with an API 4000 QTRAP mass spectrometer (Applied Biosystems/MDS Sciex (AB Sciex) with Turbo V ion source and TurboIonspray interface were used. The reference compound midazolam, which is metabolized both by phase I and phase II enzymes, was used. The elimination constant (kel), half-life (t1/2), and intrinsic clearance (Clint) were determined[19] (Table S1).

[5] = Mouse plasma protein binding; type: in vitro ADME
Source text: Plasma protein binding, and stability in human and mouse plasma have been tested as previously described.

[6] = target: LXRα (Homo sapiens, UniProt Q13133); assay: Luciferase reporter gene assay LXRα, HepG2
Chain of LXRα (Q13133 209-447 limits assumed): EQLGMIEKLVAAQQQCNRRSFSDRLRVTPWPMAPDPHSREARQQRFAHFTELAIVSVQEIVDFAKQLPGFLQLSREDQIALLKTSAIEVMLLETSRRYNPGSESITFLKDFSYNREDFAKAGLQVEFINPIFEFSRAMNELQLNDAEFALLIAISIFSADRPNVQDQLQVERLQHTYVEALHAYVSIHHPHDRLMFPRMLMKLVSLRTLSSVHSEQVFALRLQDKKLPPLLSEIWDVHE
Source text: (§1) Gal4-LBD constructs of tested nuclear receptors have been used together with pGL4.31[luc2P/GAL4UAS/Hygro] luciferase reporter construct and pRL-TK Renilla expression vector (both from Promega, Hercules, USA) in HepG2 cells transfected with Lipofectamine 2000 or 3000 reagents. For GRα and FXR receptors, full-length expression vectors have been used with pGRE-luc or pFXRE-luc luciferase constructs. For the aryl hydrocarbon receptor (AhR), p1A1-luc construct was used with only pRL-TK vector for transfection normalization. A dual reporter assay (Promega, Hercules, USA) was used to analyze both firefly and Renilla luciferase activities.
(§2) Gal4-LBD constructs of tested nuclear receptors have been used together with pGL5-luc luciferase reporter construct and pRL-TK Renilla expression vector in HepG2 cells transfected with Lipofectamine 2000 or 3000 reagents. For GRα and FXR receptors, full-length expression vectors have been used with pGRE-luc or pFXRE-luc luciferase constructs. For the aryl hydrocarbon receptor (AhR), p1A1-luc construct was used with only pRL-TK vector for transfection normalization. […] Bars represent means±S.D. (n=3).

[7] = target: T2, human PXR (Homo sapiens, UniProt O75469); assay: PXR-dependent CYP3A4 reporter gene assay in H-P cells; type: cell-based; design: expressed in transfected cells; host or cells: H-P cells (HepG2 stably transfected with pcDhPXR)
T2 sequence (O75469 1-434): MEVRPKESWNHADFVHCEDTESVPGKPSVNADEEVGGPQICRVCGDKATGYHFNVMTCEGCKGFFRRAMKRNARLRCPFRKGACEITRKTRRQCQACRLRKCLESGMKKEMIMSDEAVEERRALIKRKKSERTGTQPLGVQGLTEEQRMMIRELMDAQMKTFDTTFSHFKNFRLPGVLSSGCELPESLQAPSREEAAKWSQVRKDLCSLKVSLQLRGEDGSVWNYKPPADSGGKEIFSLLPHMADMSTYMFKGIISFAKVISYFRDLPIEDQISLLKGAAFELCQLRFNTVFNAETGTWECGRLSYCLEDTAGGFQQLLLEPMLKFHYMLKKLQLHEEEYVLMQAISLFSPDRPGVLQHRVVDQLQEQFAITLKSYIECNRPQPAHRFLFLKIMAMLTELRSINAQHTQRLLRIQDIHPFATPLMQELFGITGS
Protocol: Luciferase reporter gene assays in PXR expressing H-P cells and mammalian two-hybrid reporter assays have been performed as described before[55],[57].
We also analyzed PXR-dependent CYP3A4 reporter gene assays in H-P cells, which represent HepG2 cells stably over-expressing human PXR, due to transfection of PXR expression plasmid pcDhPXR^5. […] 0.01 µg Metridia luciferase expression plasmid pMetLuc2control per well was included.

[8] = target: T3, PXR/NCOA2 (Homo sapiens, UniProt O75469); assay: Mammalian two-hybrid PXR/coactivator NCOA2 recruitment, HepG2; type: cell-based; design: key: firefly/Metridia luciferase activity ratio (normalized)
T3 construct: PXR-LBD (residues 108–434); expressed in transfected cells; host or cells: HepG2
Protocol: The GAL4-dependent pGL4-G5, harboring a pentamer of GAL4 binding sites in front of the E1b promoter was described before.
Transient batch transfection of HepG2 cells was done as described above. […] All transfections included 0.01 µg pMetLuc2control per well for normalization of firefly luciferase reporter activities. After overnight incubation with the transfection mixtures, cells were treated with chemicals in a volume of 100 µl of cell culture medium. […] Firefly luciferase activity was measured in 10 µl of cell lysates, and Metridia luciferase activity was analyzed in 10 µl of medium supernatant, both as described before. Results were normalized by dividing firefly luciferase activity by Metridia luciferase activity measured from the same well. Measurements of samples were repeated several times (n ≥ 3).

[9] = target: GRα (Homo sapiens, UniProt P04150); assay: Luciferase reporter gene assay GRα, HepG2; conditions: ligand: Dexamethasone 100 nM
Chain of GRα (P04150 whole entry): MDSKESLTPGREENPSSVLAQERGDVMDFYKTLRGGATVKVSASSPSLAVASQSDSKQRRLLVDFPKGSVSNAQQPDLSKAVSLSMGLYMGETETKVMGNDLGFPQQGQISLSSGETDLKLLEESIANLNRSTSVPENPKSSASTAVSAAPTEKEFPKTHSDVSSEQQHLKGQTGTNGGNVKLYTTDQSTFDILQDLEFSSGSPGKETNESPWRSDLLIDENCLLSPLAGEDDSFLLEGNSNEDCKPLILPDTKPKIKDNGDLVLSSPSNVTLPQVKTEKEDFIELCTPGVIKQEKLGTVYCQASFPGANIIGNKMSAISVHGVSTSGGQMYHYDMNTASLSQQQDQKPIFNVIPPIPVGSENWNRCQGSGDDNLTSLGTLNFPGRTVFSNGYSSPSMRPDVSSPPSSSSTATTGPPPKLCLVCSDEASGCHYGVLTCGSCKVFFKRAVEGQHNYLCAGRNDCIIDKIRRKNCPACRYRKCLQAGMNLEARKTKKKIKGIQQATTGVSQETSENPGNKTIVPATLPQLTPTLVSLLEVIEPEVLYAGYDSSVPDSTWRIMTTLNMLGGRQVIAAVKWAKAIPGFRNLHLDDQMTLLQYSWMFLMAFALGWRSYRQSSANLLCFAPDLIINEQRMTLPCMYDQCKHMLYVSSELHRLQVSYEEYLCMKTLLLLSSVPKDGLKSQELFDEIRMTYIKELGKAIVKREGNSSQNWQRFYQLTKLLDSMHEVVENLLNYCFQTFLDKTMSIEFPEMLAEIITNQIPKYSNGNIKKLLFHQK
Source text: as §1, §2

[10] = target: PPARδ/β (Homo sapiens, UniProt Q03181); assay: Luciferase reporter gene assay PPARδ/β, HepG2
Chain of PPARδ/β (Q03181 211-439 limits assumed): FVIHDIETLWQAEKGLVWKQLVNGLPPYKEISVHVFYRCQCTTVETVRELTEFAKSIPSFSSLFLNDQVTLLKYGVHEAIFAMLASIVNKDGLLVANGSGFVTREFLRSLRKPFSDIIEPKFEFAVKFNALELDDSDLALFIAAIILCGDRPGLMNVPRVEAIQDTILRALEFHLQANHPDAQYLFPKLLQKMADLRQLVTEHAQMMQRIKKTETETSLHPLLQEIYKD
Source text: The luciferase reporter gene assays for FXR, LXRα, LXRβ, THα, GRα, PPARα, PPARδ/β, PPARγ, AhR, VD, ERα, ERβ and mouse Car are described in our recent paper[19]
as §1, §2

[11] = system: HepaRG KO CAR cells; assay: RT-qPCR mRNA expression in HepaRG KO CAR cells; type: cell-based, human
Source text: HepaRG cells from Biopredic (Rennes, France) were cultivated and differentiated on the 12-well plates. […] Several batches of HepaRG KO CAR (CAR Knockout HepaRG™ Cells, MTOX1012-1VL, RRID:CVCL_B6AA) and PXR Knockout HepaRG™ Cells, MTOX1011-1VL, RRID:CVCL_B6AS) cells have been obtained from Sigma-Aldrich/Merck (Darmstadt, Germany) and cultivated according to the provider’s protocols. […] Experiments with HepaRG KO PXR and HepaRG KO CAR cells have been performed in duplicates at least in two independent experiments.
RT-qPCR was used to examine gene expression in 2D and 3D PHH, HepaRG cells, or in mouse liver or intestine (ileum) samples as we have described before[60]–[62].
All qRT-qPCR experiments including Trizol reagent (Life Technologies) total RNA isolation, reverse-transcription using a random hexaprimer, and the MMLV Reverse Transcriptase Kit (ThermoFisher Scientific) we have described before^19. qPCR was performed using TaqMan Fast Advanced Master Mix with TaqMan probes (ThermoFisher Scientific). […] The delta-delta method was used for gene expression quantification normalized to at least two reference genes. Three technical replicates were used for each reaction considering the MIQE guidelines. Data are presented as fold induction to vehicle-treated cells/animals.

NC(=O)c1cc(Cn2cc(-c3c(-c4ccc(Cl)cc4)nc4cc(F)ccn34)nn2)ccc1Cl [MI-883, 2-chloro-5-((4-(2-(4-chlorophenyl)-7-fluoroimidazo[1,2-a]pyridin-3-yl)-1H-1,2,3-triazol-1-yl)methyl)benzamide]
genotoxicity / mutagenicity [1]: not genotoxic; also recorded: nonmutagenic | inhibition of CYP3A4 activity [2]: weak inhibitor | Inhibition assays, CYP3A4 activity (replicates) ([2]; M 0): 106 and 134 | Inhibition assays, CYP3A4 activity (replicates) ([2]; M 0.5): 69 and 79 and 81 | Inhibition assays, CYP3A4 activity (replicates) ([2]; M 1): 66 and 67 and 61 | Inhibition assays, CYP3A4 activity (replicates) ([2]; M -0.5): 128 and 118 and 132 | Inhibition assays, CYP3A4 activity (replicates) ([2]; M -1): 126 and 125 and 123 | Inhibition assays, CYP3A4 activity (replicates) ([2]; M -2): 89 and 124 | Inhibition assays, CYP3A4 activity (replicates) ([2]; M -2.5): 100 | Inhibition assays, CYP3A4 activity (replicates) ([2]; M -3): 100 | Inhibition assays, CYP3A4 activity (replicates) ([2]; M -3.5): 100 | Inhibition assays, CYP3A4 activity (replicates) ([2]; M -4): 100 | Inhibition assays, CYP3A4 activity (replicates) ([2]; M -4.5): 100 | pER6-luc luciferase gene reporter assay (Fig1 m), replicates ([3]; Rif 1μM + MI-883 30μM): 0.18 and 0.17 and 0.185 | pER6-luc luciferase gene reporter assay (Fig1 m), replicates ([3]; SR12813 1μM + MI-883 30μM): 0.21 and 0.22 and 0.19 | pER6-luc luciferase gene reporter assay (Fig1 m), replicates ([3]; single agent 10μM): 0.17 and 0.18 | pER6-luc luciferase gene reporter assay (Fig1 m), replicates ([3]; single agent 30μM): 0.21 and 0.19 | microsomal CLint ([4]; liver S9 fraction): 3 µL/min/mg | half-life ([4]; s9): 1.87 h | fraction unbound [5]: 0.01 | NRs assays: GAL4-LXR+RXR (relative to ctrl, replicates) [6]: 0.88 and 1.89 and 2.24 | PXR-dependent CYP3A4 reporter activity in H-P cells, replicates ([7]; 5 MI883 (µM not given), DMSO ~1): 0.825 and 0.683 and 0.491 | PXR-dependent CYP3A4 reporter activity in H-P cells, replicates ([7]; 30 MI883): 0.49 and 0.788 and 0.597 | PXR-dependent CYP3A4 reporter activity in H-P cells, replicates ([7]; RIF + 5 MI883): 10.8 and 10.1 and 9.53 | PXR-dependent CYP3A4 reporter activity in H-P cells, replicates ([7]; RIF + 10 MI883): 5.74 and 6.79 and 5.06 | PXR-dependent CYP3A4 reporter activity in H-P cells, replicates ([7]; RIF + 30 MI883): 1.18 and 2.43 and 2.32 | PXR-dependent CYP3A4 reporter activity in H-P cells, replicates ([7]; single agent: RIF (10 µM), 10 MI883): 0.606 and 0.813 and 0.535 | PXR/TIF2 (NCOA2) two-hybrid activity, replicates ([8]; MI-883 30 μM): 1.15 and 1.65 and 1.3 and 1.26 and 0.52 | PXR/TIF2 (NCOA2) two-hybrid activity, replicates ([8]; single agent: RIF (10 µM), MI-883 10 μM): 0.75 and 0.81 and 0.95 and 0.79 and 0.57 | NRs assays: GRa (relative to ctrl, replicates) [9]: 0.97 (2×) and 1.03 | NRs assays: PPARd (relative to ctrl, replicates) [10]: 1.06 and 1.19 and 1.12 | CYP7A1 mRNA in HepaRG KO CAR cells [11]: induced | CYP2B6 mRNA, RT-qPCR, HepaRG KO CAR (Fig. 1f), replicates ([11]; Phenobarbital 500 μM, CITCO 1 μM, MI 883 1 μM, ctrl = 1): 0.55 and 0.6 and 0.76
